Holding throughout (type): cell-based
The subject of test [1] is Hh signaling pathway. In words: Gli-luciferase. Conditions: for IC50: read-out: Gli-luc reporter IC50.
In test [2] the test system is Daoy cells. Nature of the test: Cell proliferation. The settings on record: Homo sapiens, 48 h, read-out: cell viability.
In test [3] the target is wild-type Smo (Mus musculus, UniProt P56726). Nature of the test: Gli-Luc reporter assay in NIH3T3-Gli-Luc cells overexpressing wild-type Smo.
The target in test [4] is Smo (Homo sapiens, UniProt Q99835). Nature of the test: Smo ciliary localization in NIH3T3 cells expressing Smo treated with Shh.
Test [5] addresses Smo D477G (Mus musculus, UniProt P56726, D477G). Nature of the test: Gli-Luc reporter assay in NIH3T3-Gli-Luc cells overexpressing Smo D477G.

Chain of Smo D477G (P56726 33-793 D477G): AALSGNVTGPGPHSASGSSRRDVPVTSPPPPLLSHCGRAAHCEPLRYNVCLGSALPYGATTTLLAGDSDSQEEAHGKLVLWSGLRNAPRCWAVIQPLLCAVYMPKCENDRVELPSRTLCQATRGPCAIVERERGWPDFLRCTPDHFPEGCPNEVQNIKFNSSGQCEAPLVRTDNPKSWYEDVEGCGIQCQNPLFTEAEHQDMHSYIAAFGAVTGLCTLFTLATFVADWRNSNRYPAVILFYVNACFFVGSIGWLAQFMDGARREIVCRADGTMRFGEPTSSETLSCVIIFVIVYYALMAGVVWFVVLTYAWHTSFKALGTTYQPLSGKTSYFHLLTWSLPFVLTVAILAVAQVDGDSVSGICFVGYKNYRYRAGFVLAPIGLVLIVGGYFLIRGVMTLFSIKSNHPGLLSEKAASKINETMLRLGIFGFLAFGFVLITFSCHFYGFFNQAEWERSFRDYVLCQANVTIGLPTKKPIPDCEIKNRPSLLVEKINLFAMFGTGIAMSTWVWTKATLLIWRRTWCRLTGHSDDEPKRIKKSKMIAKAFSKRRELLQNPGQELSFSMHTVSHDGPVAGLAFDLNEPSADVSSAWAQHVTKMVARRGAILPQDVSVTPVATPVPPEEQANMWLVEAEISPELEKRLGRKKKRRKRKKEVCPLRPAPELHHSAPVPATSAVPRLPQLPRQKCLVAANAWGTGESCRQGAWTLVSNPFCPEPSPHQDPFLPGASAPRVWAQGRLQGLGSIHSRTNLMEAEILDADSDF
Chain of Smo (Q99835 28-787): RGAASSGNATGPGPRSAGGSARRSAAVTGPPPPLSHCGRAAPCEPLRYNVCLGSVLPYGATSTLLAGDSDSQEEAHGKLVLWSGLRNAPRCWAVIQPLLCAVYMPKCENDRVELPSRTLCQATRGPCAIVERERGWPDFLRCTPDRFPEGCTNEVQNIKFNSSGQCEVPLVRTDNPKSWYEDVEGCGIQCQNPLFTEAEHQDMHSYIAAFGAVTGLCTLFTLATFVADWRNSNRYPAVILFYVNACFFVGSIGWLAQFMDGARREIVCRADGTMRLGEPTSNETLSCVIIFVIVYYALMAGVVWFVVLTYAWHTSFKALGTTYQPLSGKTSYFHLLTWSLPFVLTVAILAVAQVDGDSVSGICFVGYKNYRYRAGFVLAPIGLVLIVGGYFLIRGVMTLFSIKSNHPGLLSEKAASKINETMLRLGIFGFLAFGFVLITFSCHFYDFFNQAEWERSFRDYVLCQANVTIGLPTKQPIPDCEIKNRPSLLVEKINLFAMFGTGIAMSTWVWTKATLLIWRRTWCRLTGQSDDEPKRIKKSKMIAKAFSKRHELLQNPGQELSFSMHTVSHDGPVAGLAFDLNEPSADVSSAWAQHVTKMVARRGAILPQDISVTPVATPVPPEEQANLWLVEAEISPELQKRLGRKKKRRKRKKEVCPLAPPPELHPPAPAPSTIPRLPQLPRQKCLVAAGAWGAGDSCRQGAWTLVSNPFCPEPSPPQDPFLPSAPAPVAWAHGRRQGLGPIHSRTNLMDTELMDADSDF
Chain of wild-type Smo (P56726 33-793): as the sequence (P56726 33-793 D477G) above, with G445D counted along it

Regarding `COc1cc(NC(=O)c2cccnc2)ccc1C(=O)Nc1ccc(Cl)c(-c2ncc(-c3ccccc3)[nH]2)c1` [Compound 23], the IC50 in test [1] was 70 ± 20 nM.

Turning to `COc1cc(NC(=O)c2cccnc2Cl)ccc1C(=O)Nc1ccc(Cl)c(-c2nc3ccccc3[nH]2)c1` [Compound 14], in test [1], the IC50 amounted to 50 ± 20 nM.

In the case of `COc1cc(NC(=O)c2ccc(Cl)cc2Cl)ccc1C(=O)Nc1ccc(Cl)c(-c2ncc(-c3ccccc3)[nH]2)c1` [Compound 18], in test [1] (Gli-luc IC50 ratio to compound 17), the “loss of potency vs compound 17” value is reported as 2.2 fold. Besides, in test [1], the IC50 stood at 260 ± 80 nM.

On to `COc1cc(NC(=O)c2ccccc2Cl)ccc1C(=O)Nc1ccc(Cl)c(-c2ncc(-c3ccccc3)[nH]2)c1` [Compound 17], for which the concentration for half-maximal inhibition (IC50) in test [1] is 120 ± 60 nM.

With `CS(=O)(=O)c1ccc(C(=O)Nc2ccc(Cl)c(-c3ccccn3)c2)c(Cl)c1` [Compound 1, vismodegib, reference compound], the IC50 in test [1] amounted to 20 ± 10 nM.

For the compound `COc1cc(NC(=O)c2ccc(Cl)nc2)ccc1C(=O)Nc1ccc(Cl)c(-c2ncc(-c3ccccc3)[nH]2)c1` [Compound 22], in test [1], the IC50 stood at 150 ± 80 nM.

In the case of `COc1cc(NC(=O)c2cccnc2)ccc1C(=O)Nc1ccc(Cl)c(-c2nc3ccccc3[nH]2)c1` [Compound 16], the IC50 in test [1] is 80 ± 20 nM.

In the case of `COc1cc(NC(=O)c2cccnc2Cl)ccc1C(=O)Nc1ccc(Cl)c(-c2ncc(-c3ccccc3)[nH]2)c1` [Compound 21], the viability at 1 µM in test [2] came out at 72%. In addition, the viability at 10 µM in test [2] turned out to be 43%. Further, the IC50 stood at 39 nM in test [3], 96 nM in test [5] and 30 ± 10 nM in test [1]. Also, the “Smo ciliary translocation” value in test [4] is reported as “sharp drop”. Moreover, the “Hh pathway inhibition in mutant D477G” value in test [5] (NIH3T3-Gli-Luc cells overexpressing Smo D477G) is “slightly decreased”. For the same compound, the “shift in IC50, mutant D477G vs WT” value in test [5] (Smo D477G vs wild-type Smo) stood at 2.4 fold. In addition, in test [1] (Gli-luc reporter, fold higher than compound 3), the “potency compared to compound 3” value turned out to be 6 fold.

As for `COc1cc(NC(=O)c2ccc(F)cc2)ccc1C(=O)Nc1ccc(Cl)c(-c2ncc(-c3ccccc3)[nH]2)c1` [Compound 20], the IC50 in test [1] was 250 ± 40 nM.

The values above are taken from publication PMC9034380 (RSC Advances, 2021).
